Consider four compounds from PMC9211429 (Antimicrobial Agents and Chemotherapy, 2022).

Data set [1] deals with HIV. Also on record: method as in earlier work. The conditions noted are these: cited from earlier work.
Data set [2] in a line: clinical. As to conditions: human, in vivo; for AUC(0-t): AUC0-24 PBMC.
For data set [3] the following is noted: human, in vivo.
The nature of data set [4]: clinical. As to conditions: human, in vivo, AUC0-24 Plasma.

Broadly, the AUC(0-t) is the area under the concentration-time curve up to a stated or last time point. A lower AUC(0-t) goes with low exposure. As for `CC(C)CN(C[C@@H](O)[C@H](Cc1ccccc1)NC(=O)O[C@H]1CO[C@H]2OCC[C@H]21)S(=O)(=O)c1ccc(N)cc1` [DRV, darunavir], the “90% effective concentration (EC90)” value in data set [1] was 200 ng/mL. The same compound returned an AUC(0-t) in data set [2] of 17500 ng·h/mL.
The term Kp denotes tissue or fluid exposure divided by exposure in the circulation. As to `C[C@@H]1CCO[C@H]2Cn3cc(C(=O)NCc4ccc(F)cc4F)c(=O)c(O)c3C(=O)N12` [DTG, dolutegravir], for the setting “human, in vivo”, the “AUC0-24 Plasma” value was 30967 ng·h/mL. Besides, the “AUC0-24 PBMC” value in data set [3] was found to be 12807 ng·h/mL. The AUC(0-t) was 31600 ng·h/mL in data set [4] and 14900 ng·h/mL in data set [2]. For the same compound, the Kp is around 0.25 in data set [2] (Ctrough in PBMC relative to plasma, throughout the protocol) and 0.19 in data set [2] (PBMC/Plasma Ctrough ratio).
In the case of `CO[C@H]1/C=C/O[C@@]2(C)Oc3c(C)c(O)c4c(O)c(c(/C=N/N5CCN(C)CC5)c(O)c4c3C2=O)NC(=O)/C(C)=C\C=C\[C@H](C)[C@H](O)[C@@H](C)[C@@H](O)[C@@H](C)[C@H](OC(C)=O)[C@@H]1C` [RIF, rifampicin], the “Cmax Plasma” value (median, DRV/RTV 1600/200 QD + DTG + RIF (n = 4)) is 11240 ng/mL.
With `CC(C)c1nc(CN(C)C(=O)N[C@H](C(=O)N[C@@H](Cc2ccccc2)C[C@H](O)[C@H](Cc2ccccc2)NC(=O)OCc2cncs2)C(C)C)cs1` [RTV, ritonavir], the AUC(0-t) in data set [4] was found to be 6070 ng·h/mL; in data set [2], 9830 ng·h/mL.
